This test deals with 17 highly resistant MRSA strains. Description: In vitro activity: minimum inhibitory concentration (MIC) by the agar dilution method in Mueller Hinton agar, 17 highly resistant MRSA strains. In kind it is cell-based, Methicillin resistant Staphylococcus aureus (MRSA). The following applies: inoculum =10^5 CFU/spot. As to the method: In vitro activity was determined by minimum inhibitory concentration (MIC) by the agar dilution method in Mueller Hinton agar inoculum =10^5 CFU/spot.

≈ marks a conversion by molar mass, not a printed value.

A word on the MIC50: it is the lowest concentration that inhibits either 50% of growth or 50% of the strains tested, depending on the study. For orientation: MIC90 means the lowest concentration that inhibits either 90% of growth or 90% of the strains tested, depending on the study. A higher MIC90 goes with lower susceptibility.

Consider `O=C(C[n+]1ccc(CN2CC/C(=C\C3=C(C(=O)[O-])N4C(=O)[C@@H](NC(=O)CSc5ccncc5)[C@H]4SC3)C2=O)cc1)Nc1ccc(O)cc1` [Ex. 4, (E)-(6R,7R)-3-[1-[1-[(4-Hydroxy-phenylcarbamoyl)-methyl]-pyridin-1-ium-4-ylmethyl]-2-oxo-pyrrolidin-3-ylidenemethyl]-8-oxo-7-[2-(pyridin-4-yl-sulfanyl)-acetylamino]-5-thia-1-aza-bicyclo[4.2.0]oct-2-ene-2-carboxylate], for which the MIC50 reads like this: (Table 1, substance alone) above 16 µg/mL; (Table 2, substance alone) above 16 µg/mL. The MIC90 reads like this: (Table 1, substance alone) above 16 µg/mL; (Table 2, substance alone) above 16 µg/mL.
Under “Table 1, substance alone”, `O=C(C[n+]1ccc(CN2CC/C(=C\C3=C(C(=O)[O-])N4C(=O)[C@@H](NC(=O)CSc5ccc6ccccc6c5)[C@H]4SC3)C2=O)cc1)Nc1ccc(O)c(F)c1` [Ex. 5, (E)-(6R,7R)-3-[1-[1-[(3-Fluoro-4-hydroxy-phenylcarbamoyl)-methyl]-pyridin-1-ium-4-ylmethyl]-2-oxo-pyrrolidin-3-ylidenemethyl]-7-[2-(naphthalen-2-ylsulfanyl)-acetylamino]-8-oxo-5-thia-1-aza-bicyclo[4.2.0]oct-2-ene-2-carboxylat] showed an MIC50 above 16 µg/mL and an MIC90 above 16 µg/mL. Under “Table 2, substance alone”, this molecule yielded an MIC50 above 16 µg/mL and an MIC90 above 16 µg/mL.
In the case of `O=C(CSc1cc(Cl)c(Cl)cc1Cl)N[C@@H]1C(=O)N2C(C(=O)O)=C(/C=C3\CCN(Cc4cccc(O)c4)C3=O)CS[C@H]12` [Ex. 6, (E)-(6R,7R)-3-[1-(3-Hydroxy-benzyl)-2-oxo-pyrrolidin-3-ylidenemethyl]-8-oxo-7-[2-(2,4,5-trichloro-phenylsulfanyl)-acetylamino]-5-thia-1-aza-bicyclo[4.2.0]oct-2-ene-2-carboxylic acid], under “Table 1, substance alone”, the MIC50 is 16 µg/mL (≈ 24.4 µM) and the MIC90 was above 16 µg/mL. Moreover, under “Table 2, substance alone”, the MIC50 was found to be 16 µg/mL (≈ 24.4 µM) and the MIC90 was above 16 µg/mL.
Take `O=C(CSc1ccc2ccccc2c1)N[C@@H]1C(=O)N2C(C(=O)O)=C(/C=C3\CCN(Cc4cccc(O)c4)C3=O)CS[C@H]12` [Ex. 7]: where the note is “Table 1, substance alone”, the MIC50 was 16 µg/mL (≈ 26.6 µM), the MIC90 was determined as 16 µg/mL (≈ 26.6 µM) and the “range of MIC” value lay in the range of 2 to 16 µg/mL. For the same molecule, where the note is “Table 2, substance alone”, the MIC50 worked out at 16 µg/mL (≈ 26.6 µM), the MIC90 came to 16 µg/mL (≈ 26.6 µM) and the “range of MIC” value lay within 2 to 16 µg/mL.
For the setting “Table 1, substance alone”, `O=C(C[n+]1ccc(CN2CC/C(=C\C3=C(C(=O)[O-])N4C(=O)[C@@H](NC(=O)CSc5ccccc5)[C@H]4SC3)C2=O)cc1)Nc1ccc(O)c(F)c1` [Ex. 9, (E)-(6R,7R)-3-[1-[1-[(3-Fluoro-4-hydroxy-phenylcarbamoyl)-methyl]-pyridin-1-ium-4-ylmethyl]-2-oxo-pyrrolidin-3-ylidenemethyl]-8-oxo-7-(2-phenylsulfanyl-acetylamino)-5-thia-1-aza-bicyclo[4.2.0]oct-2-ene-2-carboxylate] displayed an MIC50 of 16 µg/mL (≈ 22.7 µM) and an MIC90 of 16 µg/mL (≈ 22.7 µM). In addition, where the note is “Table 2, substance alone”, the MIC50 came out at 16 µg/mL (≈ 22.7 µM) and the MIC90 is 16 µg/mL (≈ 22.7 µM).
Take `O=C(C[n+]1ccc(CN2CC/C(=C\C3=C(C(=O)[O-])N4C(=O)[C@@H](NC(=O)CSc5cc(Cl)ccc5Cl)[C@H]4SC3)C2=O)cc1)Nc1ccc(O)c(F)c1` [Ex. 10]: where the note is “Table 1, substance alone”, the MIC50 was above 16 µg/mL and the MIC90 was above 16 µg/mL. For the setting “Table 2, substance alone”, the MIC50 was above 16 µg/mL and the MIC90 was above 16 µg/mL.
On to `Cl.O=C(CSc1ccccc1)N[C@@H]1C(=O)N2C(C(=O)O)=C(/C=C3\CCN([C@@H]4CCNC4)C3=O)CS[C@H]12` [Ex. 11, (E)-(6R,7R)-8-Oxo-3-[(R)-2-oxo-[1,3']bipyrrolidinyl-3-ylidenemethyl]-7-(2-phenylsulfanyl-acetylamino)-5-thia-1-aza-bicyclo[4.2.0]oct-2-ene-2-carboxylic acid hydrochloride (1:1)], for which the MIC50 came out at 16 µg/mL (Table 1, substance alone) and 16 µg/mL (Table 2, substance alone). For the same molecule, the MIC90 was above 16 µg/mL (Table 1, substance alone) and above 16 µg/mL (Table 2, substance alone).
